Values after ≈ are worked out from the molar mass of the structure shown. Values belong to the molecule of their own block, whether it stands above or below them.
What was measured:
[1] = tested on: Staphylococcus epidermidis; experiment: Antibacterial activity against Staphylococcus epidermidis ATCC 35547 assessed as effect on planktonic growth at 1.37 ug/ml after 20 hrs relative to control; assay type: functional
[2] = tested on: Staphylococcus aureus; experiment: Antibacterial activity against Staphylococcus aureus ATCC 25923 assessed as effect on planktonic growth at 0.17 ug/ml after 20 hrs relative to control; assay type: functional
[3] = tested on: Staphylococcus aureus; experiment: Antibacterial activity against Staphylococcus aureus ATCC 25923 assessed as effect on planktonic growth at 10.9 ug/ml after 20 hrs relative to control; assay type: functional
[4] = tested on: Staphylococcus aureus; experiment: Antibacterial activity against Staphylococcus aureus ATCC 25923 assessed as effect on planktonic growth at 1.37 ug/ml after 20 hrs relative to control; assay type: functional
[5] = tested on: Staphylococcus epidermidis; experiment: Antibacterial activity against Staphylococcus epidermidis ATCC 35547 assessed as effect on planktonic growth at 0.17 ug/ml after 20 hrs relative to control; assay type: functional
[6] = tested on: Streptococcus mutans; experiment: Antibacterial activity against Streptococcus mutans ATCC 25175 assessed as effect on planktonic growth at 0.34 ug/ml after 20 hrs relative to control; assay type: functional
[7] = tested on: Streptococcus mutans; experiment: Antibacterial activity against Streptococcus mutans ATCC 25175 assessed as effect on planktonic growth at 43.8 ug/ml after 20 hrs relative to control; assay type: functional
[8] = tested on: Staphylococcus epidermidis; experiment: Antibacterial activity against Staphylococcus epidermidis ATCC 35547 assessed as effect on planktonic growth at 5.5 ug/ml after 20 hrs relative to control; assay type: functional
[9] = tested on: Pseudomonas aeruginosa; experiment: Antibacterial activity against Pseudomonas aeruginosa ATCC 27853 assessed as effect on planktonic growth at 43.8 ug/ml after 20 hrs relative to control; assay type: functional
[10] = tested on: Staphylococcus epidermidis; experiment: Antibacterial activity against Staphylococcus epidermidis ATCC 35547 assessed as effect on planktonic growth at 2.73 ug/ml after 20 hrs relative to control; assay type: functional
[11] = tested on: Pseudomonas aeruginosa; experiment: Antibacterial activity against Pseudomonas aeruginosa ATCC 27853 assessed as effect on planktonic growth at 21.9 ug/ml after 20 hrs relative to control; assay type: functional
[12] = tested on: Streptococcus mutans; experiment: Antibacterial activity against Streptococcus mutans ATCC 25175 assessed as effect on planktonic growth at 10.9 ug/ml after 20 hrs relative to control; assay type: functional
[13] = tested on: Pseudomonas aeruginosa; experiment: Antibacterial activity against Pseudomonas aeruginosa ATCC 27853 assessed as effect on planktonic growth at 5.5 ug/ml after 20 hrs relative to control; assay type: functional
[14] = tested on: Staphylococcus aureus; experiment: Antibacterial activity against Staphylococcus aureus ATCC 25923 assessed as effect on planktonic growth at 87.5 ug/ml after 20 hrs relative to control; assay type: functional
[15] = tested on: Staphylococcus epidermidis; experiment: Antibacterial activity against Staphylococcus epidermidis ATCC 35547 assessed as effect on planktonic growth at 10.9 ug/ml after 20 hrs relative to control; assay type: functional
[16] = tested on: Streptococcus mutans; experiment: Antibacterial activity against Streptococcus mutans ATCC 25175 assessed as effect on planktonic growth at 1.37 ug/ml after 20 hrs relative to control; assay type: functional
[17] = tested on: Streptococcus mutans; experiment: Antibacterial activity against Streptococcus mutans ATCC 25175 assessed as effect on planktonic growth at 21.9 ug/ml after 20 hrs relative to control; assay type: functional
[18] = tested on: Staphylococcus aureus; experiment: Antibacterial activity against Staphylococcus aureus ATCC 25923 assessed as effect on planktonic growth at 43.8 ug/ml after 20 hrs relative to control; assay type: functional
[19] = tested on: Staphylococcus aureus; experiment: Antibacterial activity against Staphylococcus aureus ATCC 25923 assessed as effect on planktonic growth at 2.73 ug/ml after 20 hrs relative to control; assay type: functional
[20] = tested on: Staphylococcus epidermidis; experiment: Antibacterial activity against Staphylococcus epidermidis ATCC 35547 assessed as effect on planktonic growth at 0.68 ug/ml after 20 hrs relative to control; assay type: functional
[21] = tested on: Staphylococcus aureus; experiment: Antibacterial activity against Staphylococcus aureus ATCC 25923 assessed as effect on planktonic growth at 0.34 ug/ml after 20 hrs relative to control; assay type: functional
[22] = tested on: Staphylococcus aureus; experiment: Antibacterial activity against Staphylococcus aureus ATCC 25923 assessed as effect on planktonic growth at 5.5 ug/ml after 20 hrs relative to control; assay type: functional
[23] = tested on: Streptococcus mutans; experiment: Antibacterial activity against Streptococcus mutans ATCC 25175 assessed as effect on planktonic growth at 5.5 ug/ml after 20 hrs relative to control; assay type: functional
[24] = tested on: Staphylococcus epidermidis; experiment: Antibacterial activity against Staphylococcus epidermidis ATCC 35547 assessed as inhibition of biofilm formation after 20 hrs by crystal-violet staining method; assay type: functional, organism-based
[25] = tested on: Staphylococcus epidermidis; experiment: Antibacterial activity against Staphylococcus epidermidis ATCC 35547 assessed as effect on planktonic growth at 21.9 ug/ml after 20 hrs relative to control; assay type: functional
[26] = tested on: Pseudomonas aeruginosa; experiment: Antibacterial activity against Pseudomonas aeruginosa ATCC 27853 assessed as effect on planktonic growth at 1.37 ug/ml after 20 hrs relative to control; assay type: functional
[27] = tested on: Staphylococcus aureus; experiment: Antibacterial activity against Staphylococcus aureus ATCC 25923 assessed as effect on planktonic growth at 0.68 ug/ml after 20 hrs relative to control; assay type: functional
[28] = tested on: Pseudomonas aeruginosa; experiment: Antibacterial activity against Pseudomonas aeruginosa ATCC 27853 assessed as effect on planktonic growth at 0.34 ug/ml after 20 hrs relative to control; assay type: functional
[29] = tested on: Pseudomonas aeruginosa; experiment: Antibacterial activity against Pseudomonas aeruginosa ATCC 27853 assessed as inhibition of biofilm formation after 20 hrs by crystal-violet staining method; assay type: functional, organism-based
[30] = tested on: Pseudomonas aeruginosa; experiment: Antibacterial activity against Pseudomonas aeruginosa ATCC 27853 assessed as effect on planktonic growth at 0.17 ug/ml after 20 hrs relative to control; assay type: functional
[31] = tested on: Pseudomonas aeruginosa; experiment: Antibacterial activity against Pseudomonas aeruginosa ATCC 27853 assessed as effect on planktonic growth at 10.9 ug/ml after 20 hrs relative to control; assay type: functional
[32] = tested on: Staphylococcus epidermidis; experiment: Antibacterial activity against Staphylococcus epidermidis ATCC 35547 assessed as effect on planktonic growth at 87.5 ug/ml after 20 hrs relative to control; assay type: functional
[33] = tested on: Streptococcus mutans; experiment: Antibacterial activity against Streptococcus mutans ATCC 25175 assessed as effect on planktonic growth at 2.73 ug/ml after 20 hrs relative to control; assay type: functional
[34] = tested on: Pseudomonas aeruginosa; experiment: Antibacterial activity against Pseudomonas aeruginosa ATCC 27853 assessed as effect on planktonic growth at 2.73 ug/ml after 20 hrs relative to control; assay type: functional
[35] = tested on: Staphylococcus epidermidis; experiment: Antibacterial activity against Staphylococcus epidermidis ATCC 35547 assessed as effect on planktonic growth at 0.34 ug/ml after 20 hrs relative to control; assay type: functional
[36] = tested on: Streptococcus mutans; experiment: Antibacterial activity against Streptococcus mutans ATCC 25175 assessed as effect on planktonic growth at 0.17 ug/ml after 20 hrs relative to control; assay type: functional
[37] = tested on: Streptococcus mutans; experiment: Antibacterial activity against Streptococcus mutans ATCC 25175 assessed as effect on planktonic growth at 87.5 ug/ml after 20 hrs relative to control; assay type: functional
[38] = tested on: Staphylococcus aureus; experiment: Antibacterial activity against Staphylococcus aureus ATCC 25923 assessed as effect on planktonic growth at 21.9 ug/ml after 20 hrs relative to control; assay type: functional
[39] = tested on: Streptococcus mutans; experiment: Antibacterial activity against Streptococcus mutans ATCC 25175 assessed as effect on planktonic growth at 0.68 ug/ml after 20 hrs relative to control; assay type: functional
[40] = tested on: Staphylococcus epidermidis; experiment: Antibacterial activity against Staphylococcus epidermidis ATCC 35547 assessed as effect on planktonic growth at 43.8 ug/ml after 20 hrs relative to control; assay type: functional
[41] = tested on: Pseudomonas aeruginosa; experiment: Antibacterial activity against Pseudomonas aeruginosa ATCC 27853 assessed as effect on planktonic growth at 87.5 ug/ml after 20 hrs relative to control; assay type: functional
[42] = tested on: Pseudomonas aeruginosa; experiment: Antibacterial activity against Pseudomonas aeruginosa ATCC 27853 assessed as effect on planktonic growth at 0.68 ug/ml after 20 hrs relative to control; assay type: functional

IC50 ([24]; ATCC 35547, 20 h): 67.5 mg/L (≈ 118 µM)
IC50 ([29]; ATCC 27853, 20 h): > 87.5 mg/L
Structure (SMILES): COc1ccc(Br)cc1C1=C(Br)C(=O)N(CC(C)C)/C1=C\c1ccc(Br)cc1
Activity [1]: 5.7%
Activity [2]: -3.9%
Activity [3]: 1%
Activity [4]: -0.5%
Activity [5]: 3.3%
Activity [6]: -0.3%
Activity [7]: -31.4%
Activity [8]: 0.9%
Activity [9]: 3.4%
Activity [10]: 11.2%
Activity [11]: -1.3%
Activity [12]: -5%
Activity [13]: 0.6%
Activity [14]: 6%
Activity [15]: 12.3%
Activity [16]: 8.3%
Activity [17]: -14.6%
Activity [18]: 5.5%
Activity [19]: -2.4%
Activity [20]: 10%
Activity [21]: 0.3%
Activity [22]: -2.1%
Activity [23]: -3.3%
inhibition [24]: Dose-dependent effect
Activity [25]: 32.6%
Activity [26]: 1%
Activity [27]: -0.5%
Activity [28]: 0.3%
inhibition [29]: Dose-dependent effect
Activity [30]: 4.1%
Activity [31]: -2.6%
Activity [32]: 88.4%
Activity [33]: -5.3%
Activity [34]: 0.8%
Activity [35]: 14.1%
Activity [36]: 6%
Activity [37]: -15.8%
Activity [38]: 0.8%
Activity [39]: 5.8%
Activity [40]: 78.7%
Activity [41]: 12.6%
Activity [42]: -0.2%

Structure (SMILES): COc1ccc(C)cc1C1=C(Br)C(=O)O/C1=C\c1ccccc1Cl
Activity [1]: 8.5%
Activity [2]: 6%
Activity [3]: 10.9%
Activity [4]: 16.9%
Activity [5]: -1.6%
Activity [6]: 6.4%
Activity [7]: 7.4%
Activity [8]: 3.7%
Activity [9]: -2%
Activity [10]: -0.7%
Activity [11]: -6.8%
Activity [12]: -13.6%
Activity [13]: -5.3%
Activity [14]: 37%
Activity [15]: 13.5%
Activity [16]: 1.5%
Activity [17]: -3.3%
Activity [18]: 25.3%
Activity [19]: 16.9%
Activity [20]: 0.9%
Activity [21]: 8.3%
Activity [22]: 8.3%
Activity [23]: 0.8%
inhibition [24]: Dose-dependent effect
Activity [25]: 15.8%
Activity [26]: -7.5%
Activity [27]: 10.9%
Activity [28]: -8.6%
inhibition [29]: Dose-dependent effect
Activity [30]: -3.8%
Activity [31]: -10.2%
Activity [32]: 70.5%
Activity [33]: -4.1%
Activity [34]: -4.1%
Activity [35]: -0.1%
Activity [36]: 1.5%
Activity [37]: 18.9%
Activity [38]: 7.3%
Activity [39]: 5.6%
Activity [40]: 36.5%
Activity [41]: 11.1%
Activity [42]: -7.8%

— ChEMBL document CHEMBL3112480, “γ-Alkylidene-γ-lactones and isobutylpyrrol-2(5H)-ones analogues to rubrolides as inhibitors of biofilm formation by gram-positive and gram-negative bacteria” (Bioorg Med Chem Lett, 2014)
